Results as given in publication PMC8491553 (ACS Medicinal Chemistry Letters, 2021).

Target: SARS-CoV-2 main protease (3CLpro) (Severe acute respiratory syndrome coronavirus 2, UniProt P0DTD1)
Format: biochemical

| SMILES | activity as main protease inhibitor (in words) |
| --- | --- |
| Cn1nc(C(=O)N2CC3(C)CN(C(=O)c4nn(C)c5c4CCc4ccccc4-5)CC(C)(C2)C3=O)c2c1-c1ccccc1CC2 [Compound 2j] | submicromolar range |
| C#CCN1CC2(C)CN(CC#C)CC(C)(C1)C2=O [Compound 4c] | lower micromolar range |
| CC12CN(Cc3ccccc3)CC(C)(CN(Cc3ccccc3)C1)C2=O [Compound 4d] | submicromolar activity |
| CC12CN(CC#N)CC(C)(CN(CC#N)C1)C2=O [Compound 4l] | lower micromolar range |
| CC12CN(CC(=O)O)CC(C)(CN(CC(=O)O)C1)C2=O [Compound 4m] | lower micromolar range |
| Cc1cc(CN2CC3(C)CN(Cc4cc(C)no4)CC(C)(C2)C3=O)on1 [Compound 4o] | lower micromolar range |
| CC(C)(C)OC(=O)Cn1cc(CN2CC3(C)CN(Cc4cn(CC(=O)OC(C)(C)C)nn4)CC(C)(C2)C3=O)nn1 [Compound 4p] | lower micromolar range |
| CC(C)(C)OC(=O)NCCn1cc(CN2CC3(C)CN(Cc4cn(CCNC(=O)OC(C)(C)C)nn4)CC(C)(C2)C3=O)nn1 [Compound 4q] | submicromolar activity |
| CC12CN(Cc3cn(Cc4ccccc4)nn3)CC(C)(CN(Cc3cn(Cc4ccccc4)nn3)C1)C2=O [Compound 4r] | lower micromolar range |
| CC(C)Cc1ccc(C(C)C(=O)O)cc1 (stereo not shown) [Ibuprofen, reference compound] | no activity at all |
